# Assay results reported in article PMC11474028, “Lipopeptide antibiotics disrupt interactions of undecaprenyl phosphate with UptA” (Proceedings of the National Academy of Sciences of the …, 2024).
# Test system: UptA H119A
# Experiment: Native MS of C55-P binding to UptA mutant H119A
# Set-up: species or system Bacillus subtilis
# Conditions: 5 µM protein, 10 µM C55-P, pH 8.02, 0.05% LDAO, 200 mM ammonium acetate, collisional activation 100 V; three biological replicates
# Source text: Conserved arginine residues in the putative membrane reentrant loops of E. coli DedA proteins YqjA (R130) and YghB (R136) are important for the cellular role of these proteins ([36]). […] How these residues impact substrate interactions, however, is not known. Based on the model structure of UptA predicted by AlphaFold, the R112 residue should engage Q64 while R118 is able to form hydrogen bonds with E32, H119, and W146 to potentially stabilize the membrane reentrant loops (Fig. 3A). To test for the impact of these residues on C55-P binding, we generated the E32A, Q64A, R112A, R118A, H119A, and W146A UptA single mutants. After purification of the proteins, using the same protocol as the wild type (WT) (Materials and Methods and SI Appendix, Fig. S5), we equilibrated aliquots of each protein variant (5 µM) with C55-P (10 µM) and recorded spectra using the same instrument settings. […] We additionally generated a double mutant R112E/R118E in which the polarity of both native arginine residues in the wild type are reversed.
# Expression and purification of UptA
# Plasmids were used to transform chemically competent E. coli C43(DE3) cells (Lucigen) and selected on LB/Agar containing 100 μg/ml ampicillin at 37 °C. Single colonies were used to inoculate 60 mL LB containing 100 μg/ml ampicillin and were grown at 37 °C overnight for 16 h. […]
smiles,measurement,value
"CC(C)=CCC/C(C)=C/CC/C(C)=C/CC/C(C)=C\CC/C(C)=C\CC/C(C)=C\CC/C(C)=C\CC/C(C)=C\CC/C(C)=C\CC/C(C)=C\CC/C(C)=C\COP(=O)(O)O [C55-P, undecaprenyl phosphate]","reduction in C55-P binding intensity compared to wild type, H119A (in words)",modest reduction
